Patent publication US20240368150A1 (Hoffmann-La Roche Inc., priority 2021, published 2024)
Read-outs that look alike come from different tables or passages of the source.

Tests used:
primary human T-cells [1] = system: primary human T-cells
hDGKalpha(1-735)-N-His = hDGKalpha(1-735)-N-His (Homo sapiens (Human), UniProt P23743); assay: DGKalpha ADP Glo assay (in vitro DGK inhibition); format: biochemical; details: DLG 125 uM, ATP 25 μM, DGK α 4 nM, 1 hour reaction
Protocol: (§1) DGK α and ζ kinase use ATP to phosphorylate the substrate 1,2-dilauroyl-sn-glycerol (DLG, incorporated in the liposomes). ATP is converted to ADP as a result of this enzymatic reaction. After the kinase reaction, an ATP-depletion reagent is added to terminate the kinase reaction and deplete any remaining ATP, leaving only ADP. Second, a detection reagent is added to simultaneously convert ADP to ATP and allow the newly synthesized ATP to be converted to light using a coupled luciferase/luciferin reaction.
(§2) Purification of both enzymes was performed as previously described by Takahashi et al., PeerJ, 2018 (Takahashi, D.; Sakane, F. Expression and purification of human diacylglycerol kinase alpha from baculovirus-infected insect cells for structural studies. PeerJ 2018, 6, No. e5449).
(§3) A concentrated liposome solution was prepared in assay buffer without DTT and BSA: 2 mM of DLG in 21 mM of total liposome (2 mM DLG/8 mM PS/11 mM PC). […] The reactions were started by addition of DGK α and ζ kinases at 4 nM and 2 nM final concentrations, respectively. After 1 hour reaction, the amount of ADP formed was detected with the ADP-Glo kinase assay (Promega) according to the manufacturer instructions. Compounds were added in 11-points dose response, starting at […], 1:3 dilutions, with a final DMSO concentration of 2%. The multidrop combi was used as a liquid handler and luminescence was read with 0.5 s by the envision reader (PE).

primary human T-cells [2] = assay: Proliferation assay after 5 days (CellTiter-Glo, CD3 stimulation; PBS counter screen); format: cell-based; details: CD3 stimulation; for Emax proliferation (% activation) / Emax: 5 days, normalized to reference compound A1 as stimulator control = 100%, DMSO neutral control; for EC50: primary human T-cells, CellTiter-Glo after 5 days, EC50 of fitted sigmoidal curve, read-out: Tcell Proliferation CD3 EC50; for Emax: read-out: Emax proliferation (% activation)
Summary of the method: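 ATP-based luminescence (CellTiter-Glo 2.0, room temperature) measured proliferation 5 days after compound addition to CD3-stimulated or unstimulated primary human T-cells. Flags marked compounds that lowered viability or activated unstimulated cells.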

hDGKzeta(1-928)-N-His = hDGKzeta(1-928)-N-His (Homo sapiens (Human), UniProt Q13574); assay: DGKzeta ADP Glo assay (in vitro DGK inhibition); format: biochemical; details: DLG 125 uM, ATP 50 μM, DGK ζ 2 nM, 1 hour reaction
Protocol: as §1, §2, §3

MV-3 cells = assay: T-cell - TCB - MV3 killing assay (MCSP-TCB, RFP object count by Incucyte); format: cell-based, human; details: 5 d; for Emax: Homo sapiens, MV-3, 120 h, normalized: MCSP-TCB only = neutral control, 20 μM reference compound A1 = 100%, read-out: MSCP TCB killing MV-3 cells 5 d Emax; for EC50: primary human T-cells + MCSP-TCB, MV-3 RFP cells, read-out: MSCP TCB killing MV-3 cells 5 d EC50

hDGKzeta(1-928)-N-His, sequence (Q13574 whole entry): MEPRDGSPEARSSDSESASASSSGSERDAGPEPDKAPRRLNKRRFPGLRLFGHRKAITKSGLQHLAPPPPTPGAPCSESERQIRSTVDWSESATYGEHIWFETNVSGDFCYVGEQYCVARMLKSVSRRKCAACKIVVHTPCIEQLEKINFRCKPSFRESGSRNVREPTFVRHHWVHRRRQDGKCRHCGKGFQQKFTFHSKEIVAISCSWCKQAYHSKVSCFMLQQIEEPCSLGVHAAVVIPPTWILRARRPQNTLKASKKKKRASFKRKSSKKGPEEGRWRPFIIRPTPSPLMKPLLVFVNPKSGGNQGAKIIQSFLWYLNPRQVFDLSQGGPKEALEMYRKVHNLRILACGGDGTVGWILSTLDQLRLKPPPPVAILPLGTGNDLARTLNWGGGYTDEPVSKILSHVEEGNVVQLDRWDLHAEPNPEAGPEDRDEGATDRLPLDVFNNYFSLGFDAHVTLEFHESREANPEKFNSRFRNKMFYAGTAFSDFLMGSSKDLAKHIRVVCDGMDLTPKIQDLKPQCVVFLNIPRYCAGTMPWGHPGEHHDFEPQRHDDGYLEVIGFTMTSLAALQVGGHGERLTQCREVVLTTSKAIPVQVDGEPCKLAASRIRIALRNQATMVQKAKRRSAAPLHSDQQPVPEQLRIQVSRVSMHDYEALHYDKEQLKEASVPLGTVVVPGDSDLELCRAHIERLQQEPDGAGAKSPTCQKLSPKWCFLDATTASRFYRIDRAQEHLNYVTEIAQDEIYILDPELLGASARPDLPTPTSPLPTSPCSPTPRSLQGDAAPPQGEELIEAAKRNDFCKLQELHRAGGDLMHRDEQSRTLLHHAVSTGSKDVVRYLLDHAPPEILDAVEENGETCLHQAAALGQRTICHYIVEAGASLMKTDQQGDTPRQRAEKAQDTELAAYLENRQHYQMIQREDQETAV
hDGKalpha(1-735)-N-His, sequence (P23743 whole entry): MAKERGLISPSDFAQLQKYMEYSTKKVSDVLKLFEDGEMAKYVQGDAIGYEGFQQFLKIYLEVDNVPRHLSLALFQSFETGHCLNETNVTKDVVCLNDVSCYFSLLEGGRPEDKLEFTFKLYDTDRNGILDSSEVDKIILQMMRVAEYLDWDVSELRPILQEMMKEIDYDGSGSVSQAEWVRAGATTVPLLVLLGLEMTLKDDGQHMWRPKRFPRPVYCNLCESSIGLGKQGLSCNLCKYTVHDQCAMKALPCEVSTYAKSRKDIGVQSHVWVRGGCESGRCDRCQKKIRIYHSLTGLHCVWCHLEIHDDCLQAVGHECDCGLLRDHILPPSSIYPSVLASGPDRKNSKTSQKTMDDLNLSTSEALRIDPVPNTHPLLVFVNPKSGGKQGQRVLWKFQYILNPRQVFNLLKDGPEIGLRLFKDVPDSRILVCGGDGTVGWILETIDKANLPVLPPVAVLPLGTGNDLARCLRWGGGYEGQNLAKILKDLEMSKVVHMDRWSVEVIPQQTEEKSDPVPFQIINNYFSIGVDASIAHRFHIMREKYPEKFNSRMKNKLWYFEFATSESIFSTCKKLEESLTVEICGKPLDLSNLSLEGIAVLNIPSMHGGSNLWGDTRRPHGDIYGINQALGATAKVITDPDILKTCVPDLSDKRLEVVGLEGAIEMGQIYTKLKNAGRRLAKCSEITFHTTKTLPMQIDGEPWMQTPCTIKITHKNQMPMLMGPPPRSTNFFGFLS

| Structure (SMILES) | EC50 (primary human T-cells [1]) | IC50 (hDGKalpha(1-735)-N-His) | IC50 (hDGKzeta(1-928)-N-His) | Emax proliferation (% activation) (primary human T-cells [2]) | EC50 (primary human T-cells [2]) | Emax (primary human T-cells [2]; Homo sapiens, T-cell, 120 h) | EC50 (primary human T-cells [2]; Homo sapiens, T-cell, 120 h) | Emax (MV-3 cells) | EC50 (MV-3 cells) |
| --- | --- | --- | --- | --- | --- | --- | --- | --- | --- |
| N[C@H]1C[S+]([O-])c2cc(F)c(-c3noc(N4CCOC(C(F)(F)F)C4)n3)cc2N(Cc2ccc(Cl)cc2)C1=O (single isomer, unassigned; epimer a) [Example 213] | 3270 nM | 2140 nM | 52 nM | 222 % activation | 1390 nM | – | – | – | – |
| N[C@H]1C[S+]([O-])c2cc(F)c(-c3noc(N4CCOC5CC54)n3)cc2N(Cc2ccc(Cl)cc2)C1=O (single isomer, unassigned; epimer b) [Example 208] | 5250 nM | 2640 nM | 147 nM | 106 % activation | 5310 nM | – | – | – | – |
| CC(C)Oc1ccc(CN2C(=O)[C@@H](N)CS(=O)(=O)c3cc(F)c(-c4noc(N5CCOC6(CC6)C5)n4)cc32)nc1 [Example 215] | 5360 nM | 662 nM | 886 nM | – | – | 153% | 2170 nM | – | – |
| CC(C)(C)c1nnc(-c2cc3c(cc2F)S(=O)(=O)C[C@H](N)C(=O)N3Cc2ccc(OC3CCCC3)cc2)o1 [Example 253, (3R)-3-amino-7-(5-tert-butyl-1,3,4-oxadiazol-2-yl)-5-[[4-(cyclopentoxy)phenyl]methyl]-8-fluoro-1,1-dioxo-2,3-dihydro-1λ^6,5-benzothiazepin-4-one] | < 15.1 nM | 198 nM | 105 nM | – | – | 116% | 40.3 nM | – | – |
| COC(F)(c1nc(-c2cc3c(cc2F)S(=O)(=O)C[C@H](N)C(=O)N3Cc2ccc(Cl)cc2)no1)C(F)(F)F (stereo partly drawn) [Example 292, (3R)-3-amino-5-[(4-chlorophenyl)methyl]-8-fluoro-1,1-dioxo-7-[5-(1,2,2,2-tetrafluoro-1-methoxy-ethyl)-1,2,4-oxadiazol-3-yl]-2,3-dihydro-1λ^6,5-benzothiazepin-4-one] | 126 nM | 528 nM | 494 nM | – | – | 179% | 31.9 nM | – | – |
| N[C@H]1CS(=O)(=O)c2ccc(-c3nnc(N4CCOC(C(F)F)C4)o3)cc2N(Cc2ccc(Cl)cc2)C1=O (stereo partly drawn) [Example 409, (3R)-3-amino-5-[(4-chlorophenyl)methyl]-7-[5-[2-(difluoromethyl)morpholin-4-yl]-1,3,4-oxadiazol-2-yl]-1,1-dioxo-2,3-dihydro-1λ^6,5-benzothiazepin-4-one] | – | 2870 nM | 795 nM | – | – | 95% | 3880 nM | – | – |
| CC(C)(C)Nc1nnc(-c2cc3c(cc2F)S(=O)(=O)C[C@H](N)C(=O)N3Cc2ccc(Cl)cc2)o1 [Example 488, (3R)-3-amino-7-[5-(tert-butylamino)-1,3,4-oxadiazol-2-yl]-5-[(4-chlorophenyl)methyl]-8-fluoro-1,1-dioxo-2,3-dihydro-1λ^6,5-benzothiazepin-4-one] | 254 nM | – | – | – | – | 105% | 351 nM | 93% | 300 nM |
| CCc1nnn(-c2cc3c(cc2F)S(=O)(=O)C[C@H](N)C(=O)N3Cc2ccc(Cl)cc2)n1 [Example 509, (3R)-3-amino-5-[(4-chlorophenyl)methyl]-7-(5-ethyltetrazol-2-yl)-8-fluoro-1,1-dioxo-2,3-dihydro-1λ^6,5-benzothiazepin-4-one] | 290 nM | – | – | – | – | 122% | 158 nM | 94% | 190 nM |

Continued, in another order:

| EC50 (primary human T-cells [1]) | IC50 (hDGKalpha(1-735)-N-His) | IC50 (hDGKzeta(1-928)-N-His) | Structure (SMILES) | Emax proliferation (% activation) (primary human T-cells [2]) | EC50 (primary human T-cells [2]) | Emax (primary human T-cells [2]; Homo sapiens, T-cell, 120 h) | EC50 (primary human T-cells [2]; Homo sapiens, T-cell, 120 h) | Emax (MV-3 cells) | EC50 (MV-3 cells) |
| --- | --- | --- | --- | --- | --- | --- | --- | --- | --- |
| 2950 nM | 975 nM | 46 nM | N[C@H]1C[S+]([O-])c2cc(F)c(-c3noc(N4CCOC(C(F)(F)F)C4)n3)cc2N(Cc2ccc(Cl)cc2)C1=O (single isomer, unassigned; epimer b) [Example 212] | 178 % activation | 338 nM | – | – | – | – |
| 1110 nM | 513 nM | 672 nM | CC(C)(CO)n1nnc(-c2cc3c(cc2F)S(=O)(=O)C[C@H](N)C(=O)N3Cc2ccc(Cl)cc2)n1 [Example 28, (3R)-3-amino-5-[(4-chlorophenyl)methyl]-8-fluoro-7-[2-(2-hydroxy-1,1-dimethyl-ethyl)tetrazol-5-yl]-1,1-dioxo-2,3-dihydro-1λ^6,5-benzothiazepin-4-one] | – | – | 129% | 1260 nM | – | – |
| 2330 nM | 403 nM | 114 nM | CC(C)Oc1ccc(CN2C(=O)[C@@H](N)CS(=O)(=O)c3cc(F)c(-c4noc(C(N)C(F)(F)F)n4)cc32)cc1 (stereo partly drawn) [Example 48, (3R)-3-amino-7-[5-(1-amino-2,2,2-trifluoro-ethyl)-1,2,4-oxadiazol-3-yl]-8-fluoro-5-[(4-isopropoxyphenyl)methyl]-1,1-dioxo-2,3-dihydro-1λ^6,5-benzothiazepin-4-one] | – | – | 248% | 3190 nM | – | – |
| 1050 nM | 299 nM | 147 nM | CC1(C)CN(c2nc(-c3cc4c(cc3F)S(=O)(=O)C[C@H](N)C(=O)N4Cc3ccc(Cl)cc3)no2)CCO1 [Example 205, (3R)-3-amino-5-[(4-chlorophenyl)methyl]-7-[5-(2,2-dimethylmorpholin-4-yl)-1,2,4-oxadiazol-3-yl]-8-fluoro-1,1-dioxo-2,3-dihydro-16,5-benzothiazepin-4-one] | – | – | 119% | 2120 nM | – | – |
| 1500 nM | 214 nM | 100 nM | CC(C)Oc1ccc(CN2C(=O)[C@@H](N)CS(=O)(=O)c3cc(F)c(-c4noc(N5CCOC6(CC6)C5)n4)cc32)cn1 [Example 214, (3R)-3-amino-8-fluoro-5-[(6-isopropoxy-3-pyridyl)methyl]-7-[5-(4-oxa-7-azaspiro[2.5]octan-7-yl)-1,2,4-oxadiazol-3-yl]-1,1-dioxo-2,3-dihydro-1λ^6,5-benzothiazepin-4-one] | – | – | 275% | 2140 nM | – | – |
| 236 nM | 836 nM | 1100 nM | CC(C)(C)c1nnc(-c2cc3c(cc2F)S(=O)(=O)C[C@H](N)C(=O)N3Cc2ccc(C(C)(C)C#N)cc2)o1 [Example 244, 2-methyl-2-[4-[[(3R)-3-amino-7-(5-tert-butyl-1,3,4-oxadiazol-2-yl)-8-fluoro-1,1,4-trioxo-2,3-dihydro-1λ^6,5-benzothiazepin-5-yl]methyl]phenyl]propanenitrile] | – | – | 102% | 137 nM | – | – |
| 3310 nM | 1150 nM | 1200 nM | CC(C)(C)NC(=O)c1nc(-c2cc3c(cc2F)S(=O)(=O)C[C@H](N)C(=O)N3Cc2ccc(Cl)cc2)no1 [Example 293, 3-[(3R)-3-amino-5-[(4-chlorophenyl)methyl]-8-fluoro-1,1,4-trioxo-2,3-dihydro-1λ^6,5-benzothiazepin-7-yl]-N-tert-butyl-1,2,4-oxadiazole-5-carboxamide] | – | – | 92% | 2070 nM | – | – |
| 169 nM | 373 nM | 357 nM | CC(N)(c1nc(-c2cc3c(cc2F)S(=O)(=O)C[C@H](N)C(=O)N3Cc2ccc(Cl)cc2)no1)C(F)(F)F (stereo partly drawn) [Example 297, (3R)-3-amino-7-[5-(1-amino-2,2,2-trifluoro-1-methyl-ethyl)-1,2,4-oxadiazol-3-yl]-5-[(4-chlorophenyl)methyl]-8-fluoro-1,1-dioxo-2,3-dihydro-1λ^6,5-benzothiazepin-4-one] | – | – | 157% | 219 nM | – | – |
| – | 343 nM | 207 nM | CC(C)Oc1ccc(CN2C(=O)[C@@H](N)CS(=O)(=O)c3cc(F)c(-c4noc(C5CN(C)CC(F)(F)C5)n4)cc32)cc1 (stereo partly drawn) [Example 345, (3R)-3-amino-7-[5-(5,5-difluoro-1-methyl-3-piperidyl)-1,2,4-oxadiazol-3-yl]-8-fluoro-5-[(4-isopropoxyphenyl)methyl]-1,1-dioxo-2,3-dihydro-1λ^6,5-benzothiazepin-4-one] | – | – | 152% | – | – | – |
